Reference: ChEMBL document CHEMBL1141438, “Securinega alkaloids from the wood of Securinega suffruticosa var. amamiensis” (J Nat Prod, 2007)
≈ marks a conversion by molar mass, not a printed value.

Columns and labels:
KB = experiment: Cytotoxicity against human KB cells; format: functional, cell-based
L1210 = experiment: Cytotoxicity against mouse L1210 cells; format: functional, cell-based

Compound `O=C1C=C2C=C[C@@H]3C[C@@]2(O1)[C@H]1C[C@@H](O)CCN31` has an IC50 (KB) of 3 µg/mL (≈ 12.9 µM) and an IC50 (L1210) of 3.7 µg/mL (≈ 15.9 µM).
In the case of `O=C1C=C2C=C[C@@H]3C[C@@]2(O1)[C@@H]1CCCCN1O3` [PHYLLANTIDINE], the IC50 (KB) is reported as > 5 µg/mL and the IC50 (L1210) is reported as > 5 µg/mL.
In the case of `CO[C@H]1CCN2[C@@H](C1)[C@]13C[C@H]2[C@@H](OC)CC1=CC(=O)O3` [SECURINEGA AMAMINE B], the IC50 (KB) is reported as > 5 µg/mL and the IC50 (L1210) is reported as > 5 µg/mL.
In the case of `CO[C@H]1CC2=CC(=O)O[C@@]23C[C@@H]1N1CCCC[C@@H]13` [SECURINEGA AMAMINE C], the IC50 (KB) is reported as > 5 µg/mL and the IC50 (L1210) is reported as > 5 µg/mL.
`CO[C@H]1CCN2O[C@@H]3C=CC4=CC(=O)O[C@]4(C3)[C@@H]2C1` [SECURINEGA AMAMINE D] was tested, and the IC50 (KB) was > 5 µg/mL and the IC50 (L1210) was > 5 µg/mL.
With `O=C1C=C2C=C[C@@H]3C[C@@]2(O1)[C@H]1CCCCN31` [SECURININE] the IC50 (KB) was 2.2 µg/mL (≈ 10.1 µM) and the IC50 (L1210) was 1.9 µg/mL (≈ 8.74 µM).
